Here are results for 14 compounds from patent US20110269743A1, “PHENYLTHIOPHENYLDIHYDROBENZOTHIAZEPINE INHIBITORS OF STORE OPERATED CALCIUM RELEASE” (CalciMedica, Inc, priority 2008, published 2011).

SMILES strings stand for the structures.

Chain of STIM1 and Orai1 in HEK293 cells (Q96D31 whole entry): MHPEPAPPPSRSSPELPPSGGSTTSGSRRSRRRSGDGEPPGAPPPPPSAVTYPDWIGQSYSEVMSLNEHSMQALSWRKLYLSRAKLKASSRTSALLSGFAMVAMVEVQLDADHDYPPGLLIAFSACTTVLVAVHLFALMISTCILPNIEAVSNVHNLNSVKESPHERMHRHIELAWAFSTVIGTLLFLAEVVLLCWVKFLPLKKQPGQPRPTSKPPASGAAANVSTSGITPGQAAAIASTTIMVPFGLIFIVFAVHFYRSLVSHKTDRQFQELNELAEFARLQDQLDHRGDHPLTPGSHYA

The test system of the first test is Jurkat cells and colon cancer cells.
Assay: not given
The following applies: cited from earlier work.
For `Cc1nnsc1C(=O)Nc1ccc(-n2nc(C(F)(F)F)cc2C(F)(F)F)cc1` [BTP-2], the “inhibition of SOCE and proliferation” value was “inhibits SOCE and proliferation”.

The next test concerns JR251 or RBL cells. In words: Fluorescence-based store-operated calcium entry assay, IC50 in JR251 or RBL cells. In kind it is cell-based. To be noted: in either JR251 or RBL cells, or both. The method, then: The day prior to performing the assay, RBL-2H3 cells are plated in 50 μL of complete medium in a 384 well plate. Cells are grown at 37° C./6% CO2 overnight and grow to 50-60% confluence by the next day. On the assay day, 1.5 μM Fluo-4-AM dye (Invitrogen) in complete medium is added and incubated for 1 hour at RT. Cells are washed twice in Ca^2+-free HBSS buffer and 35 μL Ca^2+-free HBSS buffer is added to each well. 10 μL of a test compound prepared in a Ca^2+-free HBSS solution at 4.5× of the desired concentration is added to a well and incubated for 5 minutes at RT. 10 μL of thapsigargin prepared in a Ca^2+-free HBSS solution at 5.5× of the desired concentration (5.5 uM) is added to each well and incubated for an additional 25 minutes. The initial baseline fluorescence signal is measured with a FLIPR^384 (Molecular Devices) plate reader. 5 μL of 12× calcium in HBSS (12 mM) is added and changes in cellular fluorescence are measured with the FLIPR^384 plate reader. In each well, the change in the fluorescent signal as a function of time due to calcium entry into the cell is determined by calculating the difference between the fluorescent signal measured 7 seconds after calcium addition and the initial baseline fluorescence signal at time zero (t=0). This parameter is designated Upslope. The IC50 value is calculated as the concentration at which 50% of the Upslope is inhibited.
The day prior to performing the assay, Jurkat E6-1 cells are seeded at a density of 2 million cells/mL in complete medium in a T-175 flask. Cells are grown at 37° C./6% CO2 overnight. On the following day, 1.5 μM Fluo-4-AM dye (Invitrogen) in complete medium is added and incubated for 1 hour at RT. Cells are harvested, washed twice in Ca^2+-free HBSS buffer and plated in 35 μL Ca^2+-free HBSS buffer in a 384 well plate. 10 μL of a test compound prepared in a Ca^2+-free HBSS solution at 4.5× of the desired concentration is added to a well and incubated for 5 minutes at RT. 10 μL of thapsigargin prepared in a Ca^2+-free HBSS solution at 5.5× of the desired concentration (5.5 uM) is added to each well and incubated for an additional 25 minutes. The initial baseline fluorescence signal is measured with a FLIPR^384 (Molecular Devices) plate reader. 5 μL of 12× calcium in HBSS (12 mM) is added and changes in cellular fluorescence are measured with the FLIPR^384 plate reader. In each well, the change in the fluorescent signal as a function of time due to calcium entry into the cell is determined by calculating the difference between the fluorescent signal measured 7 seconds after calcium addition and the initial baseline fluorescence signal at time zero (t=0). This parameter is designated Upslope. The IC50 value is calculated as the concentration at which 50% of the Upslope is inhibited.
Consider `Fc1ccc(C2CC(c3cccs3)=Nc3ccccc3S2)cc1` (centres unmarked) [(E)-2-(4-fluorophenyl)-4-(thiophen-2-yl)-2,3-dihydrobenzo[b][1,4]thiazepine], for which the half-inhibitory concentration (IC50) is less than 10 µM.
Regarding `FC(F)(F)c1ccc(C2CC(c3ccco3)=Nc3ccccc3S2)cc1` (centres unmarked) [(E)-4-(furan-2-yl)-2-(4-(trifluoromethyl)phenyl)-2,3-dihydrobenzo[b][1,4]thiazepine], the IC50 was less than 10 µM.
As for `Cc1ccc(C2CC(c3cccs3)=Nc3ccccc3S2)cc1` (centres unmarked) [(E)-4-(thiophen-2-yl)-2-p-tolyl-2,3-dihydrobenzo[b][1,4]thiazepine], the IC50 is less than 10 µM.
On to `FC(F)Oc1ccc(C2CC(c3ccco3)=Nc3ccccc3S2)cc1` (centres unmarked) [(E)-2-(4-(difluoromethoxy)phenyl)-4-(furan-2-yl)-2,3-dihydrobenzo[b][1,4]thiazepine], for which the IC50 was less than 10 µM.
The same measure, in the same setting: the result for `COc1ccc(C2CC(c3ccco3)=Nc3ccccc3S2)cc1` (centres unmarked) [(E)-4-(furan-2-yl)-2-(4-methoxyphenyl)-2,3-dihydrobenzo[b][1,4]thiazepine] reads less than 10 µM.
Still for that read-out and setting: then `Fc1ccccc1C1CC(c2ccco2)=Nc2ccccc2S1` (centres unmarked) [(E)-2-(2-fluorophenyl)-4-(furan-2-yl)-2,3-dihydrobenzo[b][1,4]thiazepine], with less than 10 µM.
Turning to `COc1ccc(C2CC(c3ccco3)=Nc3ccccc3S2)c(OC)c1` (centres unmarked) [(E)-2-(2,4-dimethoxyphenyl)-4-(furan-2-yl)-2,3-dihydrobenzo[b][1,4]thiazepine], the IC50 was less than 10 µM.
Consider `Clc1ccc(C2CC(c3ccco3)=Nc3ccccc3S2)c(Cl)c1` (centres unmarked) [(E)-2-(2,4-dichlorophenyl)-4-(furan-2-yl)-2,3-dihydrobenzo[b][1,4]thiazepine], for which the 50% inhibitory concentration (IC50) was less than 10 µM.
On the same count and under the same terms, the result for `Fc1ccc(C2CC(c3ccco3)=Nc3ccccc3S2)cc1` (centres unmarked) [(E)-2-(4-fluorophenyl)-4-(furan-2-yl)-2,3-dihydrobenzo[b][1,4]thiazepine] reads less than 10 µM; that for `COc1ccc(C2CC(c3cccs3)=Nc3ccccc3S2)cc1OC` (centres unmarked) [(E)-2-(3,4-dimethoxyphenyl)-4-(thiophen-2-yl)-2,3-dihydrobenzo[b][1,4]thiazepine], less than 10 µM; that for `FC(F)Oc1ccc(C2CC(c3cccs3)=Nc3ccccc3S2)cc1` (centres unmarked) [(E)-2-(4-(difluoromethoxy)phenyl)-4-(thiophen-2-yl)-2,3-dihydrobenzo[b][1,4]thiazepine], less than 10 µM.
On the same count and under the same terms, then `Cc1ccc(C2CC(c3ccco3)=Nc3ccccc3S2)cc1` (centres unmarked) [(E)-4-(furan-2-yl)-2-p-tolyl-2,3-dihydrobenzo[b][1,4]thiazepine], with less than 10 µM.

Another test has as its target STIM1 and Orai1 in HEK293 cells (Homo sapiens, UniProt Q96D31).
Assay: not given
To be noted: HEK293 cells coexpressing STIM1 and Orai1; cited from earlier work.
As to `NCCOB(c1ccccc1)c1ccccc1` [2-aminoethoxydiphenylborate], the “block of store-operated Ca2+ entry” value is listed as “completely blocked”.
